Assay results: PubChem BioAssay AID1963963 (Molecular Pharmacology Branch, DTP, NCI, 2024)

Tested on: 958667-338-R-J2-PDC tumor spheroids viability
Test: Anticancer human tumor 958667-338-R-J2-PDC patient-derived colon adenocarcinoma cell line growth inhibition [PI3K]
Settings: spheroids with HUVEC and MSC; for IC50: curve of first compound; for viability, T/C: stronger effect = lower value
Source text: Combinatorial screen of targeted agents with the PI3K inhibitors inavolisib, alpelisib, duvelisib, and copanlisib in multi-cell type tumor spheroids
A high-throughput screen of multi-cell type tumor spheroids was designed to identify active combinations of targeted small molecules and PI3K pathway inhibitors. Complex spheroids include a stromal component modeled by human endothelial cells (HUVEC) and fibroblasts modeled by human mesenchymal stem cells (MSCs). The concentration ranges selected for each drug and investigational agent were based upon clinically achievable concentrations if the clinical Cmax of the agent was known.
Compounds. The drugs and investigational agents: inavolisib (NSC800729), alpelisib (NSC765974), duvelisib (NSC772469), copanlisib (NSC816437), ipatasertib (NSC767898), afuresertib (NSC778305), talazoparib (NSC767125), sapanisertib (NSC764658), selumetinib (NSC741078), tovorafenib (DAY101, NSC766906), vemurafenib (NSC761431), ravoxertinib (NSC781343), sotorasib (NSC818433), MRTX1133 (NSC 836407), abemaciclib (NSC 768073), palbociclib (NSC758247), venetoclax (NSC 766270), SY5609 (NSC837396), enzalutamide (NSC755605), and darolutamide (NSC825331), were obtained from the National Cancer Institute (NCI) Developmental Therapeutics Program Chemical Repository. The FDA-approved anticancer drug set is available from the NCI Developmental Therapeutics Program. […] The stock solutions were prepared in dimethyl sulfoxide (DMSO, Sigma-Aldrich, St. Louis, MO, cat. D2650) at 800-fold the tested concentration and stored at -70 degrees C prior to their use. All drugs and investigational agents were tested over a range starting from a high concentration at or near the clinical Cmax and decreasing in half-log increments. If the clinical Cmax for an agent had not been determined, the highest concentration tested was 10 microM.
Cell Culture. All cells were maintained in an incubator at 37 degrees C and 5% CO2 with 95% humidity. The PDC lines were cultured according to standard operating procedures established by the NCI PDMR (https://pdmr.cancer.gov/sops/default.htm). All PDCs were thawed and cultured in Matrigel-coated flasks prepared with a working solution of 1X Ham's F-12 nutrient mix, without supplementation (Invitrogen, Waltham, MA, cat. 11765054), 100 U/mL penicillin-streptomycin (Invitrogen, cat. 15140122), and 2.5% Matrigel (Corning Inc., Corning, NY, cat. 354248) for the first three passages. The 354836-022-R-J1-PDC, 475296-252-R-J1-PDC, and 997726-040-R-J2-PDC lines were cultured in 6A media, which includes advanced DMEM/F-12 (Thermo Fisher Scientific, cat. 12634028), 10 mM HEPES (Thermo Fisher Scientific, cat. 15630080), 1X GlutaMAX supplement (Thermo Fisher Scientific, cat. 35050061), 0.1 mg/mL primocin (InvivoGen, San Diego, CA, cat. ant-pm-2), 10% defined fetal bovine serum, heat inactivated (HyClone Laboratories Inc., Logan, UT, cat. SH30070.03HI), 50% L-WRN conditioned media (ATCC, cat. CRL-3276), 1.25 mM N-Acetyl-L-cysteine (Sigma-Aldrich, cat. A9165), 10 mM nicotinamide (Sigma-Aldrich, cat. N0636), 1X B-27 supplement (Thermo Fisher Scientific, cat. 17504044), 1X N-2 supplement (Thermo Fisher Scientific, cat. 17502048), and 10 microM Y-27632 dihydrochloride (Tocris Bioscience, Bristol, United Kingdom, cat. 1254). The 624824-186-R-J2-PDC line was cultured in 6C/Colon 1B media, which includes all 6A media components plus 50 ng/mL human EGF recombinant protein (Thermo Fisher Scientific, cat. PHG0311). […]
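Also: spheroids exposed to compounds for seven days before readout.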

- IC50 (second compound 0.0316 µM): > 100 nM
- IC50 (second compound 0.1 µM): > 100 nM
- IC50 (second compound 0.316 µM): > 100 nM
- IC50 (second compound 1 µM): > 100 nM
- IC50 (second compound 3.16 µM): > 100 nM
- IC50 (second compound 10 µM): > 100 nM
SMILES: Cn1ncnc1[C@H]1c2n[nH]c(=O)c3cc(F)cc(c23)N[C@@H]1c1ccc(F)cc1 + Cc1nc(NC(=O)N2CCCC2C(N)=O)sc1-c1ccnc(C(C)(C)C(F)(F)F)c1
- viability, T/C (second compound 0.0316 µM, first compound 0.000316 µM): 98.7%
- viability, T/C (second compound 0.0316 µM, first compound 0.001 µM): 92%
- viability, T/C (second compound 0.0316 µM, first compound 0.00316 µM): 113%
- viability, T/C (second compound 0.0316 µM, first compound 0.01 µM): 106%
- viability, T/C (second compound 0.0316 µM, first compound 0.0316 µM): 94.5%
- viability, T/C (second compound 0.0316 µM, first compound 0.1 µM): 107%
- viability, T/C (second compound 0.1 µM, first compound 0.000316 µM): 98%
- viability, T/C (second compound 0.1 µM, first compound 0.001 µM): 96.7%
- viability, T/C (second compound 0.1 µM, first compound 0.00316 µM): 83.2%
- viability, T/C (second compound 0.1 µM, first compound 0.01 µM): 101%
- viability, T/C (second compound 0.1 µM, first compound 0.0316 µM): 91.7%
- viability, T/C (second compound 0.1 µM, first compound 0.1 µM): 93%
- viability, T/C (second compound 0.316 µM, first compound 0.000316 µM): 81.4%
- viability, T/C (second compound 0.316 µM, first compound 0.001 µM): 109%
- viability, T/C (second compound 0.316 µM, first compound 0.00316 µM): 82.4%
- viability, T/C (second compound 0.316 µM, first compound 0.01 µM): 102%
- viability, T/C (second compound 0.316 µM, first compound 0.0316 µM): 87%
- viability, T/C (second compound 0.316 µM, first compound 0.1 µM): 71.2%
- viability, T/C (second compound 1 µM, first compound 0.000316 µM): 83.2%
- viability, T/C (second compound 1 µM, first compound 0.001 µM): 86.4%
- viability, T/C (second compound 1 µM, first compound 0.00316 µM): 101%
- viability, T/C (second compound 1 µM, first compound 0.01 µM): 82.6%
- viability, T/C (second compound 1 µM, first compound 0.0316 µM): 78.4%
- viability, T/C (second compound 1 µM, first compound 0.1 µM): 79.5%
- viability, T/C (second compound 3.16 µM, first compound 0.000316 µM): 78.4%
- viability, T/C (second compound 3.16 µM, first compound 0.001 µM): 78.7%
- viability, T/C (second compound 3.16 µM, first compound 0.00316 µM): 85.8%
- viability, T/C (second compound 3.16 µM, first compound 0.01 µM): 72.5%
- viability, T/C (second compound 3.16 µM, first compound 0.0316 µM): 82.8%
- viability, T/C (second compound 3.16 µM, first compound 0.1 µM): 91.3%
- viability, T/C (second compound 10 µM, first compound 0.000316 µM): 57.9%
- viability, T/C (second compound 10 µM, first compound 0.001 µM): 64.8%
- viability, T/C (second compound 10 µM, first compound 0.00316 µM): 73.3%
- viability, T/C (second compound 10 µM, first compound 0.01 µM): 60.8%
- viability, T/C (second compound 10 µM, first compound 0.0316 µM): 72.7%
- viability, T/C (second compound 10 µM, first compound 0.1 µM): 60.8%
